Experimental data as given in the supplement of paper PMC10307832.

Experiments:
Test in all cases: relative viability (nuclei count vs DMSO), 5 days (fraction); higher = more cells survive
[1] = compound: CS(=O)(=O)CCNCc1ccc(-c2ccc3ncnc(Nc4ccc(OCc5cccc(F)c5)c(Cl)c4)c3c2)o1 [Lapatinib] + O=C(CCCCCCC(=O)Nc1ccccc1)NO [Vorinostat] (partner 1 µM)
Summary of the method: (§1)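 A single step with final 0.05% Triton X-100, 1% formaldehyde and 1 ug/ml Hoechst fixed the cells and stained nuclei 5 days after treatment. Lung cancer cell lines in 1536-well plates had been treated by pin tool the day after seeding with one drug alone or a fixed anchor-drug dose plus five library-drug doses (not always all listed) in √10 steps, and nuclei were counted on 4× images. Relative viability is the ratio of nuclei in treated wells to nuclei in vehicle wells, taken as the median of duplicate plates.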

[2] = compound: CC1=NC=CC(=C1)C2=CC=C(C=C2)CC(=O)NC3=CC=C(C=C3)C4=CN=CC=C4 [Wnt-C59]
Summary of the method: (§2)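 Only plates meeting two conditions passed: control CV below 25% and at least one doubling. Lung cancer cell lines, kept overnight at 37 °C in 1536-well plates, were pinned with five library-drug doses (not always all listed) √10 apart on vehicle-anchored plates and grown 5 days without medium change. A one-step fix, permeabilisation and Hoechst stain preceded 4× imaging and MetaXpress nuclear counting. Viability equals treated-well nuclei divided by vehicle-well nuclei, as the median over plates.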

[3] = compound: CS(=O)(=O)CCNCc1ccc(-c2ccc3ncnc(Nc4ccc(OCc5cccc(F)c5)c(Cl)c4)c3c2)o1 [Lapatinib]
Summary of the method: as §2

[4] = compound: CC1=NC=CC(=C1)C2=CC=C(C=C2)CC(=O)NC3=CC=C(C=C3)C4=CN=CC=C4 [Wnt-C59] + CS(=O)(=O)CCNCc1ccc(-c2ccc3ncnc(Nc4ccc(OCc5cccc(F)c5)c(Cl)c4)c3c2)o1 [Lapatinib] (partner 2 µM)
Summary of the method: as §1

| Cell Line | relative viability ([1]; first compound 0.06325 µM) | relative viability ([1]; first compound 0.2 µM) | relative viability ([1]; first compound 0.6325 µM) | relative viability ([1]; first compound 2 µM) | relative viability ([2]; 0.001 µM) | relative viability ([2]; 0.01 µM) | relative viability ([2]; 0.03162 µM) | relative viability ([2]; 0.1 µM) | relative viability ([3]; 0.06325 µM) | relative viability ([3]; 0.2 µM) | relative viability ([3]; 0.6325 µM) | relative viability ([3]; 2 µM) | relative viability ([4]; first compound 0.001 µM) | relative viability ([4]; first compound 0.01 µM) | relative viability ([4]; first compound 0.03162 µM) | relative viability ([4]; first compound 0.1 µM) | relative viability ([3]; 0.02 µM) | relative viability ([3]; 2 µM, anchor plate) | relative viability ([1]; first compound 0.02 µM) |
| --- | --- | --- | --- | --- | --- | --- | --- | --- | --- | --- | --- | --- | --- | --- | --- | --- | --- | --- | --- |
| NCI-H522 | 0.822 | 1 | 0.839 | 0.902 | 1.04 | 0.927 | 0.994 | 0.957 | 0.746 | 0.855 | 1.01 | 0.791 | – | – | – | – | – | – | – |
| HOP-62 | 0.631 | 0.639 | 0.678 | 0.655 | 0.998 | 1 | 1.06 | 0.953 | 1.04 | 1.01 | 1.02 | 1.01 | 0.907 | 0.996 | 1.04 | 1.03 | 0.7 | 1.04 | – |
| NCI-H1623 | – | – | – | – | 0.948 | 0.812 | 1.02 | 0.994 | 0.649 | 0.576 | 0.728 | 0.328 | – | – | – | – | 0.856 | – | – |
| NCI-H2087 | 0.843 | 0.728 | 0.604 | 0.671 | 1.07 | 0.922 | 0.971 | 1.01 | 0.833 | 1.12 | 0.952 | 0.975 | 1.01 | 1.04 | 1.08 | 0.908 | 0.786 | 0.983 | 0.547 |
| NCI-H441 | – | 0.84 | 0.757 | 0.887 | 1.11 | 1.22 | 1.1 | 0.993 | 0.735 | 0.995 | 1.09 | 1.36 | – | – | – | – | – | – | 0.713 |
| NCI-H1755 | 0.689 | 0.801 | 0.76 | 0.676 | 0.994 | 0.969 | 0.999 | 0.914 | 0.914 | 0.936 | 0.967 | 0.981 | 1.01 | 0.98 | 1.03 | 0.952 | 1.01 | 1.03 | 0.731 |
| EKVX | 0.476 | 0.48 | 0.426 | 0.26 | 1.03 | 0.759 | 1.01 | 0.832 | 0.755 | 0.943 | 0.811 | 0.336 | 0.244 | 0.183 | 0.151 | 0.206 | 0.645 | 0.216 | – |
| IA-LM | 0.795 | – | 0.916 | 0.885 | 1.05 | 0.909 | 0.94 | 0.884 | 0.977 | 1.04 | 0.902 | 0.983 | 0.876 | 0.768 | 0.47 | 0.674 | 0.816 | 0.848 | – |
| A-427 | 0.841 | 0.862 | 0.833 | 0.845 | 0.965 | 0.817 | 1.05 | 1.04 | 0.978 | 1 | 0.954 | 0.963 | 1.04 | 1.01 | 1.09 | 1.11 | – | 1.05 | 0.839 |
| NCI-H1299 | – | – | – | – | 1.03 | 1.03 | 1.03 | 1.01 | 1.02 | 1 | 0.99 | 1.01 | 0.984 | 0.975 | 0.982 | 0.988 | 0.985 | 0.95 | – |
| NCI-H1993 | – | 0.721 | 0.672 | 0.509 | 0.86 | 0.751 | 1.04 | 0.909 | – | 0.928 | 0.873 | 0.745 | 0.734 | 0.832 | 0.852 | 0.825 | 0.903 | 0.837 | 0.45 |
| NCI-H1651 | 0.517 | 0.477 | 0.543 | 0.521 | 0.985 | 0.998 | 0.997 | 1 | 0.811 | 0.994 | 0.926 | 0.989 | 0.838 | 0.821 | 0.737 | 0.783 | 0.942 | 0.827 | 0.615 |
| LXF-289 | 0.709 | 0.83 | 0.664 | 0.673 | 0.983 | 0.993 | 0.999 | 0.976 | 0.993 | 0.96 | 0.957 | 0.869 | 0.925 | 0.903 | 0.891 | 0.849 | 0.923 | 0.915 | 0.474 |
| NCI-H23 | – | 0.624 | 0.746 | 0.555 | 0.827 | 0.972 | 1.01 | 1 | – | 1.02 | 1.06 | 0.938 | 1.14 | 1.11 | 1.31 | 0.958 | – | 1.11 | – |
| LCLC-103H | 0.65 | 0.768 | 0.779 | 0.692 | 0.959 | 0.986 | 0.987 | 1.03 | 0.951 | 0.997 | 1.02 | 0.975 | – | – | – | – | 0.779 | – | 0.582 |
| NCI-H1703 | – | – | – | – | 1.02 | 0.967 | 1.05 | 0.97 | 0.895 | 0.944 | 1.01 | 0.825 | 1.16 | 1.28 | 1.3 | 1.12 | 0.907 | 1.05 | – |
| A549 | – | – | – | – | 0.966 | 0.978 | 1.01 | 0.893 | 0.875 | 0.867 | 0.957 | 0.861 | 1.04 | 1.02 | 0.966 | 0.988 | 0.982 | 0.993 | – |
| NCI-H2342 | 0.596 | 0.625 | 0.707 | 0.693 | 1.01 | 1 | 0.989 | 1.03 | 0.825 | 0.798 | 0.86 | 0.856 | – | – | – | – | 0.742 | – | 0.562 |
| NCI-H1792 | – | – | – | – | 0.918 | 0.921 | 0.705 | 1.07 | – | 0.928 | 1 | 0.762 | 0.866 | 0.982 | 0.991 | 0.913 | – | 0.919 | – |
| SW 900 | 0.516 | 0.476 | 0.468 | 0.408 | 0.681 | 0.755 | 0.793 | 0.823 | 0.765 | 0.958 | 0.836 | 0.712 | – | – | – | – | – | – | – |
| NCI-H1648 | 0.271 | 0.389 | 0.587 | 0.287 | 0.881 | 1.06 | 1.05 | 0.9 | 0.667 | 0.548 | 0.625 | 0.392 | – | – | – | – | 0.671 | – | – |
